Data taken from patent publication US20130143873A1 (priority 2010, published 2013).

Experiments:
mice = conditions: 100 mg/kg (300 mg/m^2); cited from earlier work
[1] = Blood glucose (hyperglycemia) after daily oral diazoxide in C57BL/6J mice; format: in vivo; conditions: female C57BL/6J mice; 1 mg/kg (3 mg/m^2) and 0.05 mg/kg (0.15 mg/m^2) p.o. daily; 30 days; glucose at time 0 and 60 minutes
Description: Female C57BL/6J mice, 11 weeks of age, were purchased from Charles River and maintained on a 12:12 hr light:dark cycle, with standard chow and water freely available. The experiments began at 11:00 h. […] From day 4 on, glucose blood levels were measured every 3-4 days during the 30-day treatment period. Measurements were performed immediately before drug administration (time 0) and at 60 minutes. Blood samples were obtained from the saphenous vein and glucose levels were determined using a glucometer and glucose test strips (Accu-Chek® Aviva, Roche Diagnostics, Indianapolis, Ind., USA). For each group, hyperglycemia was considered when glucose concentration was equal or higher than 176 mg/dl.

[2] = system: C57BL/6J-TgN(SOD1-G93A)1Gur^dl transgenic mice; assay: Survival in transgenic mice model for amyotrophic lateral sclerosis; format: in vivo
Description: (§1) Transgenic C57BL/6J-TgN(SOD1-G93A)1Gur^dl mice were originally purchased from The Jackson Laboratories (Bar Harbor, Me.) and routinely identified as positive carriers of the transgene at early postnatal age by PCR amplification (Garney et al. Motor neuron degeneration in mice that express a human Cu,Zn superoxide dismutase mutation. Science 1994. 264(5166):1772-5). The animal colony was kept under controlled temperature (22±2° C.), humidity (40-60%) and light (12 h cycles), and treated in accordance with the European Community Council directive on animal welfare (86/609/EEC).
At 70 days postnatal age, mice identified as positive carriers of the SOD1-G93A transgene were randomly assigned to a diazoxide-treatment or control group. An additional group composed by wild type C57BL/6J was also used as absolute control for spontaneous deaths. The treatment started at postnatal day 70 and lasted until the animal was sacrificed. […] Each group consists of 14 animals.
Around 75 days of postnatal age treated and not treated mice began to display less exploratory activity and less feeding behaviour as well as a loss of body weight. 20-30 days after, motor deficits were clearly observable, with a continuous loss of muscular mass and body weight. Between postnatal day 137 and 172 animals began to not be able to right themselves within 30 seconds from either side being this their last period of survival. Date and cause of death were recorded for each mouse. For humanitarian reasons, animals were closely monitored and sacrificed as moribund prior to actual death using criteria for severe moribund state. To determine duration of survival reliably and humanely, the moribund state, defined as the inability of mice to right themselves 30 seconds after being placed on a side was used. The moribund mice were considered as “dead”, and were euthanized using carbon dioxide. It is known that when animals reach this “moribund” stage they are unable to survive more than 24 additional hours.

[3] = Blood glucose (hyperglycemia) after daily oral diazoxide in SOD1-G93A transgenic mice; format: in vivo; conditions: 4 mg/kg/day (12 mg/m^2/day) and 0.8 mg/kg/day (2.4 mg/m^2/day) p.o., 100 days, glucose at postnatal days 105, 115, 145
Description: as §1
At 40 days postnatal age, mice identified as positive carriers of the SOD1-G93A transgene were randomly assigned to a diazoxide-treatment or control group. The treatment started at postnatal day 45 and lasted until postnatal day 145. […] Each group consists of 3 animals.
Glucose blood levels were measured at postnatal days 105, 115 and 145. Measurements were performed immediately before drug administration (time 0) and at 60 minutes. Blood samples were obtained from the saphenous vein and glucose levels were determined using a glucometer and glucose test strips (Accu-Chek® Aviva, Roche Diagnostics, Indianapolis, Ind., USA). For each group, hyperglycemia was considered when glucose concentration was equal or higher than 176 mg/dl.

[4] = system: C57BL/6J-TgN(SOD1-G93A)1Gur^dl transgenic mice; assay: Motor nerve conduction, tibialis anterior CMAP amplitude, in transgenic mice model for amyotrophic lateral sclerosis; format: in vivo; conditions: postnatal day 45 to 85; for increase in the amplitude of the tibialis anterior CMAP compared with the vehicle control group: 100% = mean CMAP amplitude of wild type control group
Description: as §1
At 40 days postnatal age, mice identified as positive carriers of the SOD1-G93A transgene were randomly assigned to a diazoxide-treatment or control group. An additional group composed by wild type C57BL/6J was also used as absolute control for nerve conduction measurements. The treatment started at postnatal day 45 and lasted until postnatal day 85. The drug was administered daily orally by gavage (p.o.), in a dose volume of 200 μl. […] Each group consists of 8 animals.
At postnatal day 85 days, animals were tested for nerve conduction measurament. For motor nerve conduction tests, the sciatic nerve was stimulated percutaneously by means of single pulses of 0.02 ms duration (Grass S88) delivered through a pair of needle electrodes placed at the sciatic notch. The Compound Muscle Action Potential (CMAP, M wave) was recorded from the tibialis anterior (TA) with microneedle electrodes. […] To ensure reproducibility, the recording needles were placed under microscope to secure the same placement on all animals guided by anatomical landmarks. During the tests, the mice body temperature was kept constant by means of a thermostated warming pad.

[5] = system: C57BL/6J-TgN(SOD1-G93A)1Gur^dl transgenic mice; assay: Disease onset (time of peak body weight) in transgenic mice model for amyotrophic lateral sclerosis; format: in vivo; conditions: postnatal day 45 to 145
Description: as §1
At 40 days postnatal age, mice identified as positive carriers of the SOD1-G93A transgene were randomly assigned to a diazoxide-treatment or control group. The treatment started at postnatal day 45 and lasted until postnatal day 145. […] Each group consists of 30 animals.
The disease onset was determined as the time when the mouse reached its peak body weight.

[6] = 0.05 mg/kg/day (0.15 mg/m^2/day) p.o. from postnatal day 70
[7] = 0.1 mg/kg/day (0.3 mg/m^2/day) p.o. from postnatal day 70
[8] = 1 mg/kg/day (3 mg/m^2/day) p.o. from postnatal day 70

## CC1=NS(=O)(=O)c2cc(Cl)ccc2N1 [Diazoxide]
mice
  effect on bupivacaine-induced acute CNS toxicity (latency of convulsions): reduce the bupivacaine-induced actute CNS toxicity
[1]
  hyperglycemia (glucose concentration equal or higher than 176 mg/dl): none of the two doses tested in this study produced hyperglycemia
[2]; [6]
  Median Survival: 153 days
  Percentage of mice alive at age of 21 weeks: 78.6%
[2]; 0.05 mg/kg/day (0.15 mg/m^2/day) p.o. from postnatal day 70, listed as diazoxide
  Percentage of mice alive at age of 21 weeks: 78.6%
[2]; [7]
  Median Survival: 152 days
  Percentage of mice alive at age of 21 weeks: 71.4%
[2]; 0.1 mg/kg/day (0.3 mg/m^2/day) p.o. from postnatal day 70, listed as diazoxide
  Percentage of mice alive at age of 21 weeks: 71.4%
[2]; [8]
  Median Survival: 156 days
  Percentage of mice alive at age of 21 weeks: 85.7%
[2]; 1 mg/kg/day (3 mg/m^2/day) p.o. from postnatal day 70, listed as diazoxide
  Percentage of mice alive at age of 21 weeks: 85.7%
[3]
  hyperglycemia (glucose concentration equal or higher than 176 mg/dl): none of the two doses tested in this study produced hyperglycemia
[4]; 0.8 mg/kg/day (2.4 mg/m2/day) p.o.
  increase in the amplitude of the tibialis anterior CMAP compared with the vehicle control group: 17.1%
[4]; 4 mg/kg/day (12 mg/m2/day) p.o.
  increase in the amplitude of the tibialis anterior CMAP compared with the vehicle control group: 3.4%
[4]; 8 mg/kg/day (24 mg/m^2/day) p.o.
  amplitude of the tibialis anterior CMAP compared to the vehicle control group: no differences
[5]; 0.8 mg/kg/day (2.4 mg/m^2/day) p.o.
  Median Age of Disease Onset: 121 days
[5]; 4 mg/kg/day (12 mg/m^2/day) p.o.
  Median Age of Disease Onset: 116 days
